{"source": "patent US20260374818A1", "about": "“CATIONIC PEPTIDES WITH BROAD SPECTRUM ACTIVITY” (priority 2023, published 2026)", "key": {"[1]": {"system": "P. aeruginosa PAO1 biofilms", "assay": "Checkerboard biofilm synergy of AB103-D with antimicrobials, PAO1", "assay_type": "cell-based, Pseudomonas aeruginosa"}, "[2]": {"system": "MRSA USA 300 LAC biofilms", "assay": "Checkerboard biofilm synergy of AB103-D with antimicrobials, MRSA", "assay_type": "cell-based, methicillin resistant Staphylococcus aureus"}, "MRSA planktonic cells": {"system": "MRSA planktonic cells", "assay": "Planktonic inhibition by AB103-D single substitution variants, MRSA", "assay_type": "cell-based, methicillin resistant Staphylococcus aureus", "details": "read-out: IC50 of AB103-D alone, planktonic", "excerpt": "(§1) A series of single amino acid substitution variants of the AB103-D peptide were generated on cellulose arrays using SPOT-synthesis technology [Hilpert, K., Winkler, D. F., & Hancock, R. E. W. (2007). Peptide arrays on cellulose support: SPOT synthesis, a time and cost efficient method for synthesis of large numbers of peptides in a parallel and addressable fashion. Nature Protocols, 2(6), 1333-1349; Frank, R. (2002). The SPOT-synthesis technique. Synthetic peptide arrays on membrane supports-principles and applications. J Immunol Methods, 267(1), 13-26] to test for enhanced Gram-negative activity against P. aeruginosa and determine which residues contribute to the antibiofilm effects of this peptide. 96 AB103-D variants were generated by replacing each residue in the parent peptide with one of D-Arg, D-Lys, D-Glu, Gly, D-Ala, D-Ile, D-Leu, D-Val and D-Trp. The biofilm inhibitory activity of all 96 AB103-D variants was subsequently assessed against MRSA USA300 LAC or P. aeruginosa PAO1 in a microtitre plate assay [Haney, E. F., Trimble, M. J., & Hancock, R. E. W. (2021). Microtiter plate assays to assess antibiofilm activity against bacteria. Nature Protocols, 16(5), 2615-2632]. […]."}, "[3]": {"system": "P. aeruginosa PAO1 planktonic cells", "assay": "Planktonic inhibition by AB103-D single substitution variants, P. aeruginosa", "assay_type": "cell-based", "details": "Pseudomonas; read-out: IC50 of AB103-D alone, planktonic", "excerpt": "as §1"}, "[4]": {"system": "MRSA biofilms on human skin organoid", "assay": "Skin organoid biofilm infection model, peptide solution, MRSA", "assay_type": "cell-based, methicillin resistant Staphylococcus aureus", "details": "peptide solution 4 hrs (FIG. 3A)"}, "[5]": {"system": "PAO1 biofilms on human skin organoid", "assay": "Skin organoid biofilm infection model, peptide solution, PAO1", "assay_type": "cell-based, Pseudomonas aeruginosa", "details": "peptide solution 4 hrs (FIG. 3B)"}, "[6]": {"system": "P. aeruginosa biofilms on N/TERT epithelial skin", "assay": "Skin organoid biofilm model, peptide-loaded collagen dressings, P. aeruginosa", "assay_type": "cell-based, Pseudomonas aeruginosa", "details": "compared to DJK-5 and ciprofloxacin"}, "[7]": {"system": "MRSA biofilms on Ker-CT epidermal skin", "assay": "Skin organoid biofilm model, AB103-D loaded Medvance foam dressing, MRSA", "assay_type": "cell-based, methicillin resistant Staphylococcus aureus"}, "[8]": {"system": "S. epidermidis biofilms on Ker-CT epidermal skin", "assay": "Skin organoid biofilm model, AB103-D loaded Medvance foam dressing, S. epidermidis", "assay_type": "cell-based, Staphylococcus epidermidis"}, "[9]": {"system": "S. aureus USA300 (MRSA) wound biofilms", "assay": "Porcine dermal biofilm wound infection model, MRSA", "assay_type": "in vivo, porcine; methicillin resistant Staphylococcus aureus", "details": "compared with ciprofloxacin, mupirocin", "excerpt": "(§2) . Peptide (PEP1=DJK5; PEP3=AB103-D) solutions were used to hydrate Puracol® resorbable dressings made of collagen either alone or in the presence of antibiotic (ABX1=ciprofloxacin). Briefly, partial thickness wounds (10 mm×7 mm×1 mm deep) were created on the backs of the animals then infected with log-phase cultures of bacteria and allowed biofilms to form for 24-hrs. Dressings were applied to infected wounds of either MRSA S. aureus USA300 (FIG. 6A) or P. aeruginosa 27312 (FIG. 6B) as either a single treatment (day 1) or twice treated (Day 1 and 4) and all wounds were excised on day 7 for CFU renumeration. The amount of peptide applied in all treatments was 10 mg while 1 mg of ciprofloxacin was used in and treatment containing antibiotic. Mupirocin and silver sulfadiazine (SSD) were used as positive controls.\n(§3) In vivo porcine dermal biofilm model: Peptide loaded dressings were evaluated using a porcine dermal biofilm infection model as described previously [Davis, S. C., et al. (2018). The wound-healing effects of a next-generation anti-biofilm silver Hydrofiber wound dressing on deep partial-thickness wounds using a porcine model. International Wound Journal, 15(5), 834-839]. Briefly, partial thickness wounds (10 mm×7 mm×1 mm deep) were created on the backs of the animals then infected with log-phase cultures of bacteria and allowed biofilms to form for 24-hrs. […]"}, "[10]": {"system": "P. aeruginosa 27312 wound biofilms", "assay": "Porcine dermal biofilm wound infection model, P. aeruginosa", "assay_type": "in vivo, porcine; Pseudomonas aeruginosa", "details": "compared with ciprofloxacin, silver sulfadiazine", "excerpt": "as §2, §3"}, "[11]": {"system": "3-day-old oral plaque (multispecies) biofilms", "assay": "Oral plaque biofilm model, long-term (1-3 days) exposure, dead cell volume", "assay_type": "cell-based"}, "[12]": {"system": "3-day-old oral plaque biofilms", "assay": "Oral plaque biofilm model, brief (1 minute) exposure, dead cell volume", "assay_type": "cell-based", "details": "10 μg/ml, 1 minute once or three times, compared to DJK5"}, "[13]": {"system": "oral multispecies biofilm", "assay": "Oral multispecies biofilm development on HA disks", "assay_type": "cell-based", "details": "10 μg/ml, 3 days"}, "[14]": {"system": "human bronchiolar epithelial cells (HBEs)", "assay": "Cytotoxicity (LDH release), human bronchiolar epithelial cells"}}, "note": "Where a SMILES comes first, the peptide text is derived from it. [ ]: non-standard residue; d: D form."}
{"smiles": "CC[C@@H](C)[C@@H](NC(=O)[C@@H](C)NC(=O)[C@@H](CCCNC(=N)N)NC(=O)[C@@H](Cc1c[nH]c2ccccc12)NC(=O)[C@@H](CCC(N)=O)NC(=O)[C@H](NC(=O)[C@@H](CCCNC(=N)N)NC(=O)[C@H](NC(=O)[C@H](NC(=O)[C@@H](CCCNC(=N)N)NC(=O)[C@H](NC(=O)[C@H](N)CCCNC(=N)N)C(C)C)C(C)C)[C@H](C)CC)C(C)C)C(N)=O", "note": "[AB103-D, rvrvirvqwrai-NH2] (H-[dR][dV][dR][dV][dI][dR][dV][dQ][dW][dR][dA][dI]-NH2)", "values": [{"measurement": "MBIC of AB103-D alone", "setting": "[1]; PAO1, BM2 minimal media, at least 70% reduction of biofilm biomass", "value": 2, "unit": "µg/mL"}, {"measurement": "Synergy with several other antimicrobials", "setting": "[1]; PAO1 biofilms", "value": "proved synergistic with several other antimicrobials"}, {"measurement": "Synergy with several other antimicrobials", "setting": "[2]; MRSA USA 300 biofilms", "value": "proved synergistic with several other antimicrobials"}, {"measurement": "MBIC of AB103-D alone", "setting": "[2]; MRSA, 10% TSB + 0.1% glucose, at least 70% reduction of biofilm biomass", "value": 1, "unit": "µg/mL"}, {"measurement": "IC50", "setting": "MRSA planktonic cells", "value": 1.96, "unit": "µM"}, {"measurement": "IC50", "setting": "[3]", "value": 16, "unit": "µM"}, {"measurement": "Antibiofilm activity on skin organoid", "setting": "[4]", "value": "excellent antibiofilm activity"}, {"measurement": "Antibiofilm activity on skin organoid", "setting": "[5]", "value": "excellent antibiofilm activity"}, {"measurement": "Antibiofilm activity from collagen dressing", "setting": "[6]", "value": "clearly superior activity to both DJK-5 and ciprofloxacin"}, {"measurement": "Bacterial burden on organoid skin, loaded bandage", "setting": "[7]", "value": "effectively reduce the bacterial burden"}, {"measurement": "Bacterial burden on organoid skin, loaded bandage", "setting": "[8]", "value": "effectively reduce the bacterial burden"}, {"measurement": "Efficacy in porcine skin infection", "setting": "[9]", "value": "worked as well or better than ciprofloxacin, mupirocin (for MRSA)"}, {"measurement": "Efficacy in porcine skin infection", "setting": "[10]", "value": "worked as well or better than ciprofloxacin, mupirocin (for MRSA) or silver sulfadiazine (for P. aeruginosa)"}, {"measurement": "Proportion of dead biofilm cells", "setting": "[11]; 10 μg/ml, daily for 3 days, compared to DJK5 (FIG. 16A)", "value": "superior to DJK5 at killing bacteria cells"}, {"measurement": "Proportion of dead biofilm cells", "setting": "[11]; 1 or 5 μg/ml, daily for 3 days, compared to DJK5 (FIG. 16A)", "value": "killed more of the biofilm cells"}, {"measurement": "Proportion of dead biofilm cells", "setting": "[11]; all three concentrations, one day (FIG. 16C)", "value": "killed more biofilm cells than DJK5"}, {"measurement": "Proportion of dead biofilm cells", "setting": "[11]; all three concentrations, two days (FIG. 16B)", "value": "killed more biofilm cells than DJK5"}, {"measurement": "Killing of 3-day-old oral plaque biofilms", "setting": "[12]", "value": "significantly more effective than DJK5"}, {"measurement": "Total biovolume", "setting": "[13]", "value": "reduced total biovolume"}, {"measurement": "Percentage of dead bacterial cell volume", "setting": "[13]; compared to DJK5", "value": "significantly higher percentage of dead bacterial cell volume compared to DJK5 treatment"}, {"measurement": "Cytotoxicity (LDH)", "setting": "[14]", "value": "low toxicity"}]}
